# pIC50: −log10 of the molar value.
# Target: T1, recombinant sEH (Homo sapiens, UniProt P34913)
# T1 construct: made in house; host or cells: Sf9 insect cells
# T1 sequence (P34913 1-555): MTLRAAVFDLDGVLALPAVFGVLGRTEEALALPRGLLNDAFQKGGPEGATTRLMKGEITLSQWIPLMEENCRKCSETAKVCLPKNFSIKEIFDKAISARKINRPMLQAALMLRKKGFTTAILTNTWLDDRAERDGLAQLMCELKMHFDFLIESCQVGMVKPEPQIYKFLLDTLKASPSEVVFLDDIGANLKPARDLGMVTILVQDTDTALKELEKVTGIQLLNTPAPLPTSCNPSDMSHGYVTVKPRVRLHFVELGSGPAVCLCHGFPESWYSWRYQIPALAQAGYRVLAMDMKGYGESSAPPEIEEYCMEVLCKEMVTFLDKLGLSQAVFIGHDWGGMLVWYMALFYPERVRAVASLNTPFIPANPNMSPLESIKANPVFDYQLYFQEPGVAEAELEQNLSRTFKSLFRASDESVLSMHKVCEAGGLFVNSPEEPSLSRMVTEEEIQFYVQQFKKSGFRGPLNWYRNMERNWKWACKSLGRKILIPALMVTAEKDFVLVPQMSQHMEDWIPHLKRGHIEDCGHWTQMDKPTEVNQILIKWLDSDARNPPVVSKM
# Experiment: biochemical screening assay for inhibition of soluble epoxide hydrolase (fluorometric, Phome substrate)
# Procedure: The ability of the compounds of the formula I to inhibit soluble epoxide hydrolase can be determined as follows:
# Compounds were tested in a biochemical screening assay using recombinant sEH purified from Sf9 insect cells and an artificial substrate, (3-phenyl-oxiranyl)-acetic acid cyano-(6-methoxy-naphtalen-2-yl)-methyl ester, Phome. The biochemical assay was performed in analogy to a fluorometric method described in the literature (P. D. Jones et al., Anal. Biochem. 2005, 343, 66-75). The assay principle bases on the sEH-catalyzed hydrolysis of an artificial α-cyano-ester substrate. 0-deacetylation liberates a cyanohydrin intermediate that rapidly decomposes to the highly fluorescent 6-methoxy-2-naphtaldehyde. To discriminate sample autofluorescence, the assay was carried out as a kinetic measurement with two time points. The first measurement is performed immediately before addition of the substrate and the second measurement is done after completion of the assay. The assay format is either in 96- or in 384-well format. Details of the assay using a 96-well plate format are described below. 40 μL recombinant sEH enzyme and 5 μL test compound are pre-incubated for 15 minutes at 30° C. Following pre-incubation, the reaction is started by addition of 5 μL Phome. The assay mixture containing 2 nM final sEH concentration, test compound ranging in a concentration from 0.0001-10 μM and 5 μM Phome is incubated for 60 minutes at 30° C.
# Fluorescence can be measured with any suitable detector for instance a TECAN Safire or Tecan Ultra at […]. % inhibition of recombinant sEH activity is used for calculation of corresponding IC50 values as illustrated and described in the examples.
# The NCBI gene bank reference sequence with the accession number NM_001979 for EPHX2/sEH was applied for recombinant protein production:
# The following commercially available materials have been used: • Incubation reagent: 25 mM Hepes (Sigma-Aldrich, Cat. No H-3375), 0.01% bovine albumin (Sigma-Aldrich Cat. No PA9205) • Substrate: 3-Phenyl-oxiranyl)-acetic acid cyano-(6-methoxy-naphtalen-2-yl)-methyl ester, Phome (Biozol Cat. No 10003134) • Microtiter plates: 96-well plates (Greiner Cat. No 655180; Costar Cat. No 3915)
row,Structure (SMILES),pIC50
1,"O=C(NC1CCCCC1)N[C@H]1CO[C@H]2[C@@H]1OC[C@@H]2Sc1ccc(F)cc1 [Example 15, 1-Cyclohexyl-3-[(3S,3aR,6S,6aS)-6-(4-fluoro-phenylsulfanyl)-hexahydro-furo[3,2-b]furan-3-yl]-urea]",> 9.00
2,"CC(=O)NCCS[C@H]1CO[C@H]2[C@@H]1OC[C@@H]2NC(=O)NC1CCCCC1 [Example 16, N-{2-[(3S,3aS,6S,6aR)-6-(3-Cyclohexyl-ureido)-hexahydro-furo[3,2-b]furan-3-ylsulfanyl]-ethyl}-acetamide]",8.10
3,"CC(C)S[C@H]1CO[C@H]2[C@@H]1OC[C@@H]2NC(=O)NC1CCCCC1 [Example 17, 1-Cyclohexyl-3-((3S,3aR,6S,6aS)-6-isopropylsulfanyl-hexahydro-furo[3,2-b]furan-3-yl)-urea]",9.00
4,"COc1ccc(O[C@H]2CO[C@H]3[C@@H]2OC[C@@H]3NC(=O)NC2CCCCC2)cc1 [Example 18, 1-Cyclohexyl-3-[(3S,3aR,6S,6aS)-6-(4-methoxy-phenoxy)-hexahydro-furo[3,2-b]furan-3-yl]-urea]",9.00
5,"O=C(NC1CCCCC1)N[C@H]1CO[C@H]2[C@@H]1OC[C@@H]2OCC(F)(F)F [Example 19, 1-Cyclohexyl-3-[(3S,3aR,6S,6aS)-6-(2,2,2-trifluoro-ethoxy)-hexahydro-furo[3,2-b]furan-3-yl]-urea]",8.05
6,"Cc1nc(-c2ccccc2O[C@H]2CO[C@H]3[C@@H]2OC[C@@H]3NC(=O)NC2CCCCC2)cs1 [Example 20, 1-Cyclohexyl-3-{(3S,3aR,6S,6aS)-6-[2-(2-methyl-thiazol-4-yl)-phenoxy]-hexahydro-furo[3,2-b]furan-3-yl}-urea]",8.70
7,"CC(C)(C)S[C@H]1CO[C@H]2[C@@H]1OC[C@@H]2NC(=O)NC1CCCCC1 [Example 21, 1-((3S,3aR,6S,6aS)-6-tert-Butylsulfanyl-hexahydro-furo[3,2-b]furan-3-yl)-3-cyclohexyl-urea]",9.00
8,"CC(C)(CCO)S[C@H]1CO[C@H]2[C@@H]1OC[C@@H]2NC(=O)NC1CCCCC1 [Example 22, 1-Cyclohexyl-3-[(3S,3aR,6S,6aS)-6-(3-hydroxy-1,1-dimethyl-propylsulfanyl)-hexahydro-furo[3,2-b]furan-3-yl]-urea]",8.52
9,"O=C(NC1CCCCC1)N[C@H]1CO[C@H]2[C@@H]1OC[C@@H]2Oc1ccccc1-c1ccccc1 [Example 23, 1-[(3S,3aR,6S,6aS)-6-(Biphenyl-2-yloxy)-hexahydro-furo[3,2-b]furan-3-yl]-3-cyclohexyl-urea]",9.00
10,"O=C(NC1CCCCC1)N[C@H]1CO[C@H]2[C@@H]1OC[C@@H]2Oc1ccc(F)cc1 [Example 24, 1-Cyclohexyl-3-[(3S,3aR,6S,6aS)-6-(4-fluoro-phenoxy)-hexahydro-furo[3,2-b]furan-3-yl]-urea]",8.40
11,"O=C(NC1CCCCC1)N[C@H]1CO[C@H]2[C@@H]1OC[C@@H]2SC1CCS(=O)(=O)C1 (stereo partly drawn) [Example 25, 1-Cyclohexyl-3-[(3S,3aR,6S,6aS)-6-(1,1-dioxo-tetrahydro-1λ6-thiophen-3-ylsulfanyl)-hexahydro-furo[3,2-b]furan-3-yl]-urea]",8.10

# Other lines, results leading:
row,pIC50,Structure (SMILES)
1,6.34,"O=C(NC1CCCCC1)N[C@H]1CO[C@H]2[C@@H]1OC[C@@H]2Oc1ccccc1-c1nnn[nH]1 [Example 26, 1-Cyclohexyl-3-{(3S,3aR,6S,6aS)-6-[2-(1H-tetrazol-5-yl)-phenoxy]-hexahydro-furo[3,2-b]furan-3-yl}-urea]"
2,8.52,"O=C(NC1CCCCC1)N[C@H]1CO[C@H]2[C@@H]1OC[C@@H]2Oc1cccc(Oc2ccccc2)c1 [Example 27, 1-Cyclohexyl-3-[(3S,3aR,6S,6aS)-6-(3-phenoxy-phenoxy)-hexahydro-furo[3,2-b]furan-3-yl]-urea]"
3,8.10,"Cc1ccc(O[C@H]2CO[C@H]3[C@@H]2OC[C@@H]3NC(=O)NC2CCCCC2)cn1 [Example 28, 1-Cyclohexyl-3-[(3S,3aR,6S,6aS)-6-(6-methyl-pyridin-3-yloxy)-hexahydro-furo[3,2-b]furan-3-yl]-urea]"
4,8.70,"O=C(NC1CCCCC1)N[C@H]1CO[C@H]2[C@@H]1OC[C@@H]2Oc1ccc(F)c(Cl)c1 [Example 29, 1-[(3S,3aR,6S,6aS)-6-(3-Chloro-4-fluoro-phenoxy)-hexahydro-furo[3,2-b]furan-3-yl]-3-cyclohexyl-urea]"
5,8.70,"O=C(NC1CCCCC1)N[C@H]1CO[C@H]2[C@@H]1OC[C@@H]2Oc1cccc(-n2cnnc2)c1 [Example 30, 1-Cyclohexyl-3-[(3S,3aR,6S,6aS)-6-(3-[1,2,4]triazol-4-yl-phenoxy)-hexahydro-furo[3,2-b]furan-3-yl]-urea]"
6,8.52,"O=C(NC1CCCCC1)N[C@H]1CO[C@H]2[C@@H]1OC[C@@H]2Oc1cc(Cl)cc(Cl)c1 [Example 31, 1-Cyclohexyl-3-[(3S,3aR,6S,6aS)-6-(3,5-dichloro-phenoxy)-hexahydro-furo[3,2-b]furan-3-yl]-urea]"
7,8.52,"Cn1ccnc1-c1ccc(O[C@H]2CO[C@H]3[C@@H]2OC[C@@H]3NC(=O)NC2CCCCC2)cc1 [Example 32, 1-Cyclohexyl-3-{(3S,3aR,6S,6aS)-6-[4-(1-methyl-1H-imidazol-2-yl)-phenoxy]-hexahydro-furo[3,2-b]furan-3-yl}-urea]"
8,8.52,"O=C(NC1CCCCC1)N[C@H]1CO[C@H]2[C@@H]1OC[C@@H]2Oc1cncc(Cl)c1 [Example 33, 1-[(3S,3aR,6S,6aS)-6-(5-Chloro-pyridin-3-yloxy)-hexahydro-furo[3,2-b]furan-3-yl]-3-cyclohexyl-urea]"
9,8.70,"Cc1ccc(O[C@H]2CO[C@H]3[C@@H]2OC[C@@H]3NC(=O)NC2CCCCC2)c(C)n1 [Example 34, 1-Cyclohexyl-3-[(3S,3aR,6S,6aS)-6-(2,6-dimethyl-pyridin-3-yloxy)-hexahydro-furo[3,2-b]furan-3-yl]-urea]"
10,7.92,"O=C(NC1CCCCC1)N[C@H]1CO[C@H]2[C@@H]1OC[C@@H]2Oc1cncc(F)c1 [Example 35, 1-Cyclohexyl-3-[(3S,3aR,6S,6aS)-6-(5-fluoro-pyridin-3-yloxy)-hexahydro-furo[3,2-b]furan-3-yl]-urea]"
11,9.00,"Cc1cncc(O[C@H]2CO[C@H]3[C@@H]2OC[C@@H]3NC(=O)NC2CCCCC2)c1 [Example 36, 1-Cyclohexyl-3-[(3S,3aR,6S,6aS)-6-(5-methyl-pyridin-3-yloxy)-hexa-hydro-furo[3,2-b]furan-3-yl]-urea]"
12,9.00,"Cc1ccnc(C)c1O[C@H]1CO[C@H]2[C@@H]1OC[C@@H]2NC(=O)NC1CCCCC1 [Example 37, 1-Cyclohexyl-3-[(3S,3aR,6S,6aS)-6-(2,4-dimethyl-pyridin-3-yloxy)-hexa-hydro-furo[3,2-b]furan-3-yl]-urea]"
13,9.00,"CCc1nc(C)ccc1O[C@H]1CO[C@H]2[C@@H]1OC[C@@H]2NC(=O)NC1CCCCC1 [Example 38, 1-Cyclohexyl-3-[(3S,3aR,6S,6aS)-6-(2-ethyl-6-methyl-pyridin-3-yloxy)-hexahydro-furo[3,2-b]furan-3-yl]-urea]"
14,8.70,"Cc1cc(C)c(O[C@H]2CO[C@H]3[C@@H]2OC[C@@H]3NC(=O)NC2CCCCC2)cn1 [Example 39, 1-Cyclohexyl-3-[(3S,3aR,6S,6aS)-6-(4,6-dimethyl-pyridin-3-yloxy)-hexa-hydro-furo[3,2-b]furan-3-yl]-urea]"
15,7.96,"N#Cc1ncccc1O[C@H]1CO[C@H]2[C@@H]1OC[C@@H]2NC(=O)NC1CCCCC1 [Example 40, 1-[(3S,3aR,6S,6aS)-6-(2-Cyano-pyridin-3-yloxy)-hexahydro-furo[3,2-b]furan-3-yl]-3-cyclohexyl-urea]"
16,7.60,"Cc1ncc(O[C@H]2CO[C@H]3[C@@H]2OC[C@@H]3NC(=O)NC2CCCCC2)cn1 [Example 41, 1-Cyclohexyl-3-[(3S,3aR,6S,6aS)-6-(2-methyl-pyrimidin-5-yloxy)-hexa-hydro-furo[3,2-b]furan-3-yl]-urea]"

# Reference: patent US9540391B2, “Isomannide derivatives as inhibitors of soluble epoxide hydrolase” (SANOFI, priority 2013, dated 2017)
